Data set [1] deals with HCT116 cells. Description: Cell death / ratio of toxicity and viability in HCT116 (monolayer and spheroids). Format: cell-based. Conditions: for cell death / toxicity (ratio of toxicity and viability): HCT116, 2D or 3D spheroids, NEN 1.2 μM, FCCP 2.5 μM, 2-DG 100 mM, Domp, Imi, Desi, Ami 30 μM, Clomi 20 μM; for attenuation of cell death induced by NEN drug combinations: HCT116 monolayer or spheroids, ISRIB 1 μM or Cyclodextrin in medium. The protocol:
(§1) HCT116, BxPC3 and U87 cell lines were maintained in Dulbecco's modified Eagle's medium (DMEM) (Gibco) supplemented with 10% fetal bovine serum (FBS; Millipore) and Penicilin/Streptomycine (Life Tehnologies), and cultured at 37° C., 5% CO2 and 95 humidity. For spheroid formation, 10000 cells were plated in ultra-low attachment plates (Fisher Scientific), centrifuged at 850 G for 10 min and incubated for 3 days until treatment, with medium change every 3 days.
(§2) To determine drug induced toxicity in spheroid cultures, the Promega CellToXGreen and RealTime-Glo™ MT Cell Viability kits were used according to the manufacturers protocols. Briefly, Toxicity and viability dyes were mixed with cell culture medium and added prior to drug treatment. Fluorescence and luminescence were measured over the course of 3 days on a Thermo Fisher Varioskan Lux plate reader.
(§3) For Caspase 3/7 activity and general cytotoxicity in 2D cell culture the Apo One Homogenous Caspase-3/7 Assay and Multitox Fluor assays were employed respectively, according to the manufacturers protocol. Cells were seeded in 96-wells one day prior to treatment and incubated 24-48 h before assaying.

Another data set concerns U87 cells. Description: Cell death / ratio of toxicity and viability in U87 (spheroids). The data set is classed as cell-based. Conditions: for cell death / toxicity (ratio of toxicity and viability): U87, NEN 1.2 μM, FCCP 2.5 μM, 2-DG 100 mM, Domp, Imi, Desi, Ami 30 μM, Clomi 20 μM; for attenuation of cell death induced by NEN drug combinations: U87 spheroids, ISRIB 1 μM or Cyclodextrin 0.75%. The protocol:
as §1, §2, §3

The next data set deals with BxPC3 cells. Description: Cell death / ratio of toxicity and viability in BxPC3 (monolayer). The following applies: for cell death / toxicity (ratio of toxicity and viability): BxPC3, NEN 1.2 μM, FCCP 2.5 μM, 2-DG 100 mM, Domp, Imi, Desi, Ami 30 μM, Clomi 20 μM. Format: cell-based. The protocol: as §1, §2, §3
For data set [2], the system named is HCT116 cells. Description: High-throughput phenotypic screen with NEN co-treatment (FDA-approved and GPCR libraries). Conditions: NEN 1.2 μM, 24 h, FDA-approved drug library and GPCR library. Format: cell-based. The protocol:
Plate and liquid handling was performed using a HTS platform system composed of a Sciclone G3 Liquid Handler from PerkinElmer (Waltham, MA, USA) with a Mitsubishi robotic arm (Mitsubishi Electric, RV-3511), a MultiFloTM Dispenser (Biotek Instruments, Bad Friedrichshall, Germany) as well as a CytomatTM Incubator (Thermo Fisher Scientific, Waltham, MA, USA). Cell seeding and assays were performed in black 384-well plates (Greiner bio one 384-well μCLEAR®, BLACK, 781091). The plates were coated with poly-D-lysine (Sigma-Aldrich, St. Louis, MA, USA) for 1 h at room temperature to facilitate a better cell adherence. Cells were seeded in 384-well microplates with a cell number of 12,000 cells/well. The signals of the MultiTox-Fluor assays were detected on the EnVision® Multilabel Reader (PerkinElmer, Waltham, MA, USA). The Prestwick Chemical library contains 1,280 small molecule compounds, which are 100% approved drugs (Food and Drug Administration (FDA), European Medicines Agency (EMA) and other agencies). The purity of the compounds was >90% as reported by the provider of the compounds. The GPCR compound library was purchased from MedChem Express (Cat. No.: HY-[…]). The Z' factor was calculated as described by Zhang and colleagues (Zhang, Chung et al., 1999). For screening of the FDA and GPCR small molecule libraries, HCT116 cells were washed with PBS, trypsinized, and resuspended in cell culture medium. The cell suspension (12,000 cells in 50 μl per well) was dispensed into poly-D-lysine pre-coated 384-well plates (Greiner bio one 384-well pCLEAR®, BLACK, 781091) and incubated at 37° C. with 5% CO2. 24 h after seeding, either 5 μl of NEN (negative control), NEN+Nutlin-3a (positive control), or DMSO alone (solvent control) dissolved in cell culture media were dispensed to the assay plate (NEN, final concentration: 1.2 μM; Nutlin-3a, final concentration: 25 μM). In addition, the same day cells were treated either with compound (1 mM stock solution) dissolved in 100% DMSO or DMSO alone. 0.5 μl of compounds/DMSO were transferred to 55 μl cell culture medium per well to keep the final DMSO volume concentration below 1.0%. The cells were then incubated (37° C.; 5% CO2) for 24 h prior to adding 50 μl MultiTox-Fluor Multiplex Cytotoxicity Assay reagent (Promega). Live-cell fluorescence (excitation=400 nm; emission=505 nm) and dead-cell fluorescence (excitation=485 nm; emission=520 nm) were recorded with an EnVision multilabel reader (PerkinElmer, Waltham, USA). The ratio for live/dead was calculated and normalized to the negative/vehicle control. For hit selection a threshold of lower than 3 standard deviations from the median of the negative/vehicle population was set.

In another data set the test system is ATF4, CHOP and Gadd34. The experiment in a line: qPCR of ISR genes. The data set is classed as cell-based. Conditions: HCT116; for ISR marker gene expression (ATF4, CHOP, Gadd34 mRNA): NEN 1.2 μM, Domp and TCAs 30 μM, Clomi 20 μM. The text has this: RNA was isolated using the Qiagen […] kit following the manufacturers protocol and reverse transcribed using the Quantitect reverse transcription kit (Qiagen). cDNA was amplified using the PowerUp SYBRGreen mastermix (LifeTechnologies), the following primers and an Applied Biosystems Quantstudio 6 cycler. RNA expression data were normalized to the level of beta-actin expression.
Background: In qPCR the cycle at which signal appears reflects the starting amount.

For another data set, the system named is UPP1. The experiment in a line: UPP1 expression (immunoblot, qPCR) in HCT116. Format: cell-based. Conditions: ISRIB 1 μM with NEN 1.2 μM + Domperidone 30 μM. The protocol:
Cells were lysed at 4° C. in 100 μl of RIPA buffer (Sigma-Aldrich) containing protease (Roche 11697498001) and phosphatase (Roche 04906837001) inhibitors, and sonicated. Cell extracts were centrifuged 14000×RPM for 5 min 4° C. and the supernatant collected to protein concentration determination with BCA protein assay (Pierce 23225). 10-20 μg of total protein were subjected to SDS-PAGE electrophoresis, and after transfer, membranes were blocked (1 h) and incubated overnight at 4° C. with primary antibodies. After secondary antibody incubation for 1 h at room temperature, signals were visualized by Chemidoc Image System (BioRad) and ImageLab software.
RNA was isolated using the Qiagen RNAesay kit following the manufacturers protocol and reverse transcribed using the Quantitect reverse transcription kit (Qiagen). cDNA was amplified using the PowerUp SYBRGreen mastermix (LifeTechnologies), the following primers and an Applied Biosystems Quantstudio 6 cycler. RNA expression data were normalized to the level of beta-actin expression.
A general note: A western blot detects proteins with antibodies after separation by electrophoresis.

The conditions of data set [3]: compared with its analogue Trimipramine; cited from earlier work.
Data set [4] deals with glioblastoma and small-cell lung cancer (SCLC). The following applies: cited from earlier work.
In data set [5] the test system is HCT116 cells. The experiment in a line: Caspase 3/7 activity in HCT116. Format: cell-based. The following applies: HCT116, 1% serum, NEN 1.2 μM, 18 h. From the text:
For Caspase 3/7 activity and general cytotoxicity in 2D cell culture the Apo One Homogenous Caspase-3/7 Assay and Multitox Fluor assays were employed respectively, according to the manufacturers protocol. […]

The test system of data set [6] is preclinical tumor rodent models. Conditions: single drug; background art; cited from earlier work.
The subject of another data set is PDO-48 organoids. The experiment in a line: Paclitaxel sensitization in PDO-48 organoids. The data set is classed as cell-based, human. Conditions: triple combination with NEN and TCAs vs Paclitaxel alone. The protocol: (§4) Primary patient-derived PDAC (Pancreatic ductal adenocarcinoma) three-dimensional (3D) organoids were generated from primary resected human PDAC surgical specimen according to the “Tuveson protocol” described in (Tiriac et al., 2018) and in the methods and extended methods sections of a publication by the group of Hans Clevers (Driehuis et al., 2019). Generation and culturing of primary-dispersed human PDAC cells was performed as recently described (Biederstadt et al., 2020). Written informed consent from the patients for research purposes was obtained prior to the investigation.
as §2
(§5) To investigate the efficacy of targeting the described metabolic stress response in a more heterogeneous cancer cell population, which better reflect the tumor biology, cultures of primary tumor-derived organoids from two patients with pancreatic cancer have been used. Organoids were seeded at a density of 1000 cells per well and let grow for 7 days prior to treatment.

The next data set deals with B42 organoids. The experiment in a line: Paclitaxel sensitization in B42 organoids. Format: cell-based, human. Conditions: triple combination with NEN and TCAs vs Paclitaxel alone. The protocol: as §4, §2, §5

Entries after “also recorded” stand apart in the source; their conditions may differ.

`O=CC[C@@H](O)[C@H](O)[C@H](O)CO` [2-DG, 2-deoxyglucose]: the “cell death / toxicity (ratio of toxicity and viability)” value in the data set on HCT116 cells [1], in the data set with U87 cells and with BxPC3 cells was “but not 2-DG alone caused significant cell death” each time.
Take `CN(C)CCCN1c2ccccc2CCc2ccc(Cl)cc21` [Clomipramine]: the “hit in screen (cell death in NEN co-treated but not vehicle treated cells)” value in the data set with HCT116 cells [2] is “represented with several compounds in both screens”.
Turning to `CNCCCN1c2ccccc2CCc2ccccc21` [Desipramine], in the data set on HCT116 cells [2], the “hit in screen (cell death in NEN co-treated but not vehicle treated cells)” value was “represented with several compounds in both screens”.
Turning to `O=c1[nH]c2ccccc2n1CCCN1CCC(n2c(=O)[nH]c3cc(Cl)ccc32)CC1` [Domperidone], the “hit in screen (cell death in NEN co-treated but not vehicle treated cells)” value with HCT116 cells [2] is reported as “scored as hit in both screens; also recorded: one of the top hits in both screens”. Further, the “ISR marker gene expression (ATF4, CHOP, Gadd34 mRNA)” value in the data set with ATF4, CHOP and Gadd34 is given as “modest increase in ISR marker gene expression”.
As for `N#CC(C#N)=NNc1ccc(OC(F)(F)F)cc1` [FCCP, Carbonyl cyanide-p-trifluoromethoxyphenylhydrazone], the “cell death / toxicity (ratio of toxicity and viability)” value in the data set on HCT116 cells [1], in the data set on U87 cells and in the data set on BxPC3 cells was “did not cause significant toxicity” each time.
In the case of `O=C(COc1ccc(Cl)cc1)NC1CCC(NC(=O)COc2ccc(Cl)cc2)CC1` (centres unmarked) [ISRIB], the “attenuation of cell death induced by NEN drug combinations” value is on record as “attenuated cell death induction” in the data set on HCT116 cells [1]; “attenuated cell death induction” with U87 cells; “attenuated cell death induction” with BxPC3 cells (BxPC3 monolayer, 48 h). In addition, the “effect on drug-induced CHOP, Gadd34 and ATF4 expression” value in the data set with ATF4, CHOP and Gadd34 (ISRIB 1 μM with NEN 1.2 μM + Domperidone 30 μM) was “prevented the induction of CHOP and of its target gene Gadd34, but did not decrease ATF4 expression significantly”. Also, the “effect on drug-induced UPP1 upregulation” value in the data set on UPP1 is on record as “prevented the drug-induced UPP1 upregulation”.
With `CN(C)CCCN1c2ccccc2CCc2ccccc21` [Imipramine], the water solubility result in data set [3] is “higher water solubility”. Besides, the “efficacy in preclinical mouse models” value in data set [4] is “proven efficacy against glioblastoma and small-cell lung cancer (SCLC) in preclinical mouse models”.
`NCCO.O=C(Nc1ccc([N+](=O)[O-])cc1Cl)c1cc(Cl)ccc1O` [NEN, niclosamide ethanolamine]: the “cell death / toxicity (ratio of toxicity and viability)” value in the data set with HCT116 cells [1], with U87 cells and with BxPC3 cells was “did not cause significant toxicity” in each case. In addition, the “cell death (caspase activity) under low serum” value in the data set with HCT116 cells [5] is “caused significant cell death”. Also, the “ISR marker gene expression (ATF4, CHOP, Gadd34 mRNA)” value with ATF4, CHOP and Gadd34 was “modest increase in ISR marker gene expression”. Besides, in [6], the anti-tumor efficacy entry is given as “anti-tumor efficacy in a variety of preclinical tumor rodent models”.
For `CC(=O)O[C@H]1C(=O)[C@@]2(C)[C@H]([C@H](OC(=O)c3ccccc3)[C@]3(O)C[C@H](OC(=O)[C@H](O)[C@@H](NC(=O)c4ccccc4)c4ccccc4)C(C)=C1C3(C)C)[C@]1(OC(C)=O)CO[C@@H]1C[C@@H]2O` [Paclitaxel], the “increase in effectiveness in inducing organoid cell death” value is “approximately ten” in the data set with PDO-48 organoids and “up to 100 times” with B42 organoids.
With `CC(CN(C)C)CN1c2ccccc2CCc2ccccc21` (centres unmarked) [Trimipramine], in the data set on HCT116 cells [2], the “hit in screen (cell death in NEN co-treated but not vehicle treated cells)” value is recorded as “represented with several compounds in both screens”.
`O=C(Nc1ccc([N+](=O)[O-])cc1Cl)c1cc(Cl)ccc1O` [niclosamide]: the anti-tumor efficacy entry in data set [6] was “anti-tumor efficacy in a variety of preclinical tumor rodent models; also recorded: only minor therapeutic efficacy”.
For the molecule Cyclodextrin [CD], the figures for the “attenuation of cell death induced by NEN drug combinations” value with HCT116 cells [1] and in the data set on U87 cells were “CD concentration-dependent suppression of cell death” and “partially prevented cell death induction”, respectively.

The values are drawn from patent publication US20230330111A1, “ACTIVE AGENT COMBINATION FOR TREATMENT OF CANCER” (HELMHOLTZ ZENTRUM MÜNCHEN - DEUTSCHES FORSCHUNGSZENTRUM FÜR …, priority 2020, published 2023).
